From patent US4845077A, “Method of inducing ovulation” (Serono Laboratories, Inc., priority 1987, dated 1989)

System: normal cynomolgus monkeys
Experiment: GnRH antagonist plus fixed gonadotropin regimen (FSH/LH or FSH only) followed by hCG
Assay type: in vivo
Details: GnRH antagonist 1.0 mg/kg/day with gonadotropin 25 IU/day im, cycle days 3-9, versus gonadotropin-only controls
Source text: All of the groups received a fixed regimen of gonadotropin therapy for seven consecutive days (25 IU/day/im, cycle days 3-9) followed by hCG (1,000 IU/im) on cycle day 10.

Substance: (Ac-pClPhe^1,pClPhe^2, DTrp^3, DArg^6, DAla^10)GnRH HCl [GnRH antagonist]
- variability in response to gonadotropin treatment: less
